Values after ≈ are worked out from the molar mass of the structure shown. Values belong to the compound of their own block, whether it stands above or below them.
How the values were obtained:
Escherichia coli = assay: Antibacterial activity against Escherichia coli; assay type: functional
Aspergillus niger = assay: Antifungal activity against Aspergillus niger; assay type: functional
[1] = tested on: Trichophyton mentagrophytes; assay: Antimicrobial activity against Trichophyton mentagrophytes; assay type: functional
Pseudomonas aeruginosa = assay: Antibacterial activity against Pseudomonas aeruginosa; assay type: functional
Candida albicans = assay: Antifungal activity against Candida albicans; assay type: functional
Staphylococcus aureus = assay: Antibacterial activity against Staphylococcus aureus; assay type: functional
Bacillus cereus = assay: Antibacterial activity against Bacillus cereus; assay type: functional
Klebsiella pneumoniae = assay: Antibacterial activity against Klebsiella pneumoniae; assay type: functional
[2] = Antioxidant activity assessed as DPPH radical scavenging activity; assay type: functional; settings: read-out: IC50
[3] = molecular target: Glutamate receptor ionotropic, kainate 1 (Homo sapiens, UniProt P39086); assay: Binding affinity to GluK1 receptor (unknown origin)
[4] = molecular target: Glutamate [NMDA] receptor; assay: Binding affinity to NMDA receptor (unknown origin); assay type: protein-complex assay, Homo sapiens
[5] = molecular target: Glutamate receptor ionotropic, kainate 2 (Homo sapiens, UniProt Q13002); assay: Binding affinity to GluK2 receptor (unknown origin)
[6] = Binding affinity to KA receptor (unknown origin); parameters: species or system Homo sapiens
[7] = molecular target: T1, Glutamate receptor ionotropic AMPA (Homo sapiens, UniProt P42261+P42262+P42263+P48058); assay: Binding affinity to AMPA receptor (unknown origin); assay type: protein-complex assay
Glutamate receptor 2 = Glutamate receptor 2 (Homo sapiens, UniProt P42262); assay: Binding affinity to GluA2 receptor (unknown origin)
[8] = molecular target: Glutamate [NMDA] receptor; assay: Displacement of [3H]DCKA from NMDA receptor (unknown origin); assay type: protein-complex assay, Homo sapiens
[9] = Inhibition of ALR2 (unknown origin); parameters: species or system Homo sapiens
[10] = molecular target: T1, Glutamate receptor ionotropic AMPA; assay: Displacement of [3H]AMPA from AMPA receptor (unknown origin); assay type: protein-complex assay
[11] = Displacement of [3H]glycine from AMPA receptor (unknown origin); assay type: protein-complex assay, Homo sapiens
[12] = molecular target: T1, Glutamate receptor ionotropic AMPA; assay: Displacement of [3H]kainic acid from AMPA receptor (unknown origin); assay type: protein-complex assay
[13] = Inhibition of ALR1 (unknown origin) relative to control; parameters: concentration or dose not given beside the values; settings: Homo sapiens; concentration not given here

Sequence of Glutamate receptor ionotropic, kainate 1 (P39086 whole entry): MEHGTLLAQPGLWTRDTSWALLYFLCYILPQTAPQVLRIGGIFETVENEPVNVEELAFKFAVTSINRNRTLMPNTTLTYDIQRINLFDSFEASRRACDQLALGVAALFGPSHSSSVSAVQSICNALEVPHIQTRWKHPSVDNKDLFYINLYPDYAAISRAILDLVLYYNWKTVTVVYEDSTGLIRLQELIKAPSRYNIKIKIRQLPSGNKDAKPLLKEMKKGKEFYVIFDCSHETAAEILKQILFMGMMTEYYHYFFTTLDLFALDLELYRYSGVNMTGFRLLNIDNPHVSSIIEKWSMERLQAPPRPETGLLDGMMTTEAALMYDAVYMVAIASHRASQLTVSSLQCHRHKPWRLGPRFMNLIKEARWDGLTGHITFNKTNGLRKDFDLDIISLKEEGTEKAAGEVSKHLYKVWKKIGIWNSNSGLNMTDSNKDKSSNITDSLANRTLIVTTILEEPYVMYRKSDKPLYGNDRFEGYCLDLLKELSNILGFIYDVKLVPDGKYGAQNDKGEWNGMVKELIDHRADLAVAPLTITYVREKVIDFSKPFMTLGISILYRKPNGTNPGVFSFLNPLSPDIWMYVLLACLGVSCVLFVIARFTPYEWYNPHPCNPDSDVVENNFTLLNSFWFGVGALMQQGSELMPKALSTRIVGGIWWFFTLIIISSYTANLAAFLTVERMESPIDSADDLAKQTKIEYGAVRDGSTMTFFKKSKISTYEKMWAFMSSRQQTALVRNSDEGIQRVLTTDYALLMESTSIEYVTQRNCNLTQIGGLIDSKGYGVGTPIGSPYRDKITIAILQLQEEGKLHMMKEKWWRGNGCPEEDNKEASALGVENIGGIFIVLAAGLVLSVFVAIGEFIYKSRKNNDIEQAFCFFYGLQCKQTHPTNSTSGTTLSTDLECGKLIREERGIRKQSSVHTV
Sequence of Glutamate receptor ionotropic, kainate 2 (Q13002 whole entry): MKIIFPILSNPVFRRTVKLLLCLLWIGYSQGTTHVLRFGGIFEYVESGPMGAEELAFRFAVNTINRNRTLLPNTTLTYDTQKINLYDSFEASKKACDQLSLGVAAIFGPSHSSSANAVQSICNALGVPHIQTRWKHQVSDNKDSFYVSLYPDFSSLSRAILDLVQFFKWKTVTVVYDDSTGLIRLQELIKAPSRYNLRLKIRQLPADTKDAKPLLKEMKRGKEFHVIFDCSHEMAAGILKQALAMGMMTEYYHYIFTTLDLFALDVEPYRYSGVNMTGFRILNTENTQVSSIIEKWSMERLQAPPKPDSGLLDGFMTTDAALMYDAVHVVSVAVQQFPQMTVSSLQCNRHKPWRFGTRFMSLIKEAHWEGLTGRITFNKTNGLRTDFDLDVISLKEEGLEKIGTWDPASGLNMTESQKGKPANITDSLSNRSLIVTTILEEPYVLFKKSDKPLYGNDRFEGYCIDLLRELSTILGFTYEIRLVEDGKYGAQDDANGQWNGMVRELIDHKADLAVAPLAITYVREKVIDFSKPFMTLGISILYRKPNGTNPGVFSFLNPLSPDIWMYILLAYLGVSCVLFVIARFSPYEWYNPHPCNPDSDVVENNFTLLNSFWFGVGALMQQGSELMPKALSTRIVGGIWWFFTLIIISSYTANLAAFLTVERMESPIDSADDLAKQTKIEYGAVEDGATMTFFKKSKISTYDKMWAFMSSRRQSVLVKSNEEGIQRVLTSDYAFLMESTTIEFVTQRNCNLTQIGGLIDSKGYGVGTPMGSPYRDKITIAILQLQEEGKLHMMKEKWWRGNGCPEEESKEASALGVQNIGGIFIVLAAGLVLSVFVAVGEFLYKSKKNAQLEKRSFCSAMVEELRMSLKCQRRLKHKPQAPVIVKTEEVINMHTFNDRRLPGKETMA
Sequence of Glutamate receptor 2 (P42262 whole entry): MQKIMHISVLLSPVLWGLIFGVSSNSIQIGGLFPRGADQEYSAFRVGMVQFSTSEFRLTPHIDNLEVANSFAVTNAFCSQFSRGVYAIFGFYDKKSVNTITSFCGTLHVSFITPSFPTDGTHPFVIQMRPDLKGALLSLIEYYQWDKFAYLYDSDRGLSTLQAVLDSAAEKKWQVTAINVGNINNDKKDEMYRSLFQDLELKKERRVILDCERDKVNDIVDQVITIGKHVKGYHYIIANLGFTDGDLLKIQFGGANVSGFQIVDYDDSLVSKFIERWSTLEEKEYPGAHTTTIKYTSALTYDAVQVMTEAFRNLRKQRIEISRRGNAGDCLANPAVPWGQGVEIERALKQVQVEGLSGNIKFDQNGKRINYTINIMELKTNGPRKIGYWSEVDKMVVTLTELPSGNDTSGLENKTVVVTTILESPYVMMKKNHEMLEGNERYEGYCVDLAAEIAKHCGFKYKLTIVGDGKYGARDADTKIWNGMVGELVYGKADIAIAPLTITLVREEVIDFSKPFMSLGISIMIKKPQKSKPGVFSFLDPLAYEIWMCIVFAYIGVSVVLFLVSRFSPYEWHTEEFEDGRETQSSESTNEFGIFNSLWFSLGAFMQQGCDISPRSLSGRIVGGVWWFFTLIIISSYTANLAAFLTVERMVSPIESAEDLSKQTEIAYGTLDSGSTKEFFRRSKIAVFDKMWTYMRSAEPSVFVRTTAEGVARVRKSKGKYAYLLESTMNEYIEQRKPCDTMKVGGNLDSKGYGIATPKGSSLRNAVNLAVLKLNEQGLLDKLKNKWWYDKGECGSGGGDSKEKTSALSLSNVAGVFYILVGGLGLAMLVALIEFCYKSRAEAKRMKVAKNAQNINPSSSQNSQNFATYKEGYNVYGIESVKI

- MIC (Escherichia coli): > 500 mg/L
- MIC (Aspergillus niger): > 500 mg/L
- MIC [1]: 500 mg/L
- MIC (Pseudomonas aeruginosa): > 500 mg/L
- MIC (Candida albicans): 50 mg/L
- MIC (Staphylococcus aureus): 1.5 mg/L
- MIC (Bacillus cereus): 6.3 mg/L
Compound: CCCCCCCCCn1c(=O)c2c(-c3ccccc3)nc(-c3ccc[n+](CCCCCCCCC)c3)n2c2ccccc21.[Br-]
- MBC (Escherichia coli): > 500 mg/L
- MBC (Aspergillus niger): > 500 mg/L
- MBC [1]: > 500 mg/L
- MBC (Pseudomonas aeruginosa): > 500 mg/L
- MBC (Candida albicans): 500 mg/L
- MBC (Staphylococcus aureus): 50 mg/L
- MBC (Bacillus cereus): 500 mg/L

- MIC (Pseudomonas aeruginosa): 125 mg/L (≈ 516 µM)
Compound: CCc1nc2ccc(C(F)(F)F)cc2[nH]c1=O

- IC50 [2]: 28.9 µM
Compound: CSCCc1nc2ccc(N3C(=O)CSC3c3ccc([N+](=O)[O-])cc3)cc2[nH]c1=O (stereo not drawn)
- MBC (Candida albicans): 353 µM
- MBC (Klebsiella pneumoniae): 706 µM (≈ 313 µg/mL)

- Ki [3]: 1.3 µM
- Ki [4]: > 100 µM
- Ki [5]: > 100 µM
- IC50 [6]: > 100 µM
- IC50 [7]: 30 µM
- Ki (Glutamate receptor 2): > 100 µM
Compound: Cc1ccc(C(=O)O)cc1-c1ccc2[nH]c(=O)c(=O)[nH]c2c1

- Ki [8]: 0.0044 µM
Compound: C[C@H]1Cc2cc(Cl)cc3[nH]c(=O)c(=O)n(c23)C1CC(=O)O (stereo partly drawn)

- MIC (Escherichia coli): > 500 mg/L
- MIC (Aspergillus niger): > 500 mg/L
- MIC [1]: > 500 mg/L
- MIC (Pseudomonas aeruginosa): > 500 mg/L
- MIC (Candida albicans): 500 mg/L
- MIC (Staphylococcus aureus): 0.78 mg/L
- MIC (Bacillus cereus): 0.78 mg/L
Compound: CCCCCCCCC[n+]1cccc(-c2nc(-c3ccccc3)c3c(=O)n(CCCCCC)c4ccccc4n23)c1.[I-]
- MBC (Escherichia coli): > 500 mg/L
- MBC (Aspergillus niger): > 500 mg/L
- MBC [1]: > 500 mg/L
- MBC (Pseudomonas aeruginosa): > 500 mg/L
- MBC (Candida albicans): 500 mg/L
- MBC (Staphylococcus aureus): 5 mg/L
- MBC (Bacillus cereus): 500 mg/L

- IC50 [9]: 1.54 µM
Compound: O=c1[nH]c2c([N+](=O)[O-])c(Cl)c(Cl)c([N+](=O)[O-])c2nc1Oc1ccccc1

Compound: O=C(O)c1ccn(-c2cc3c(cc2[N+](=O)[O-])nc(O)c2nc(C(=O)O)nn23)c1
- Ki [10]: 0.019 µM

- MIC (Pseudomonas aeruginosa): 250 mg/L (≈ 1060 µM)
Compound: CCOC(=O)c1nc2cc(F)ccc2[nH]c1=O

- Ki [8]: 0.0014 µM
Compound: CC[C@H]1Cc2cc(Br)cc3[nH]c(=O)c(=O)n(c23)C1CC(=O)O (stereo partly drawn)

- MIC (Escherichia coli): 125 mg/L (≈ 437 µM)
- MIC (Staphylococcus aureus): 250 mg/L (≈ 873 µM)
Compound: CCOC(=O)c1nc2cc(C(F)(F)F)ccc2[nH]c1=O

- MIC (Escherichia coli): 125 mg/L (≈ 437 µM)
Compound: CCOC(=O)c1nc2ccc(C(F)(F)F)cc2[nH]c1=O

- MIC (Pseudomonas aeruginosa): 250 mg/L (≈ 778 µM)
Compound: CCOC(=O)c1nc2cc(F)c(N3CCOCC3)cc2[nH]c1=O

- Ki [11]: 0.16 µM
- Ki [10]: 3.2 µM
- IC50 [12]: 34.1 µM
Compound: Nc1cc(Cl)cc2[nH]c(=O)c3nc(C(=O)O)nn3c12

- Ki [3]: 12 µM
- Ki [4]: > 100 µM
- Ki [5]: > 100 µM
- IC50 [6]: > 100 µM
- IC50 [7]: > 100 µM
- Ki (Glutamate receptor 2): > 100 µM
Compound: O=c1[nH]c2ccc(-c3cccc(P(=O)(O)O)c3)cc2[nH]c1=O

- IC50 [11]: > 10 µM
- IC50 [10]: 1.59 µM
Compound: CCOC(=O)CN(C)Cc1c(CC)c([N+](=O)[O-])cc2nc(O)c(O)nc12

- IC50 [9]: 0.00644 µM
- inhibition [13]: 58.7%
Compound: O=C(O)Cn1c(=O)c(Oc2ccc(Br)cc2F)nc2ccc(F)cc21

Compound: O=c1[nH]c2ccc(CCP(=O)(O)O)cc2[nH]c1=O
- Ki [3]: > 100 µM
- Ki [4]: 56 µM
- Ki [5]: > 100 µM
- IC50 [6]: > 100 µM
- IC50 [7]: > 100 µM

- Ki [10]: 0.19 µM
Compound: O=c1[nH]c2cc([N+](=O)[O-])c(-n3ccnc3)nc2n2cnnc12

Compound: O=c1[nH]c2ccc(/C=C/CP(=O)(O)O)cc2[nH]c1=O
- Ki [3]: > 100 µM
- Ki [4]: 69 µM
- Ki [5]: > 100 µM
- IC50 [6]: > 100 µM
- IC50 [7]: > 100 µM

- IC50 [11]: 0.47 µM
- IC50 [10]: 0.14 µM
Compound: CCc1c([N+](=O)[O-])cc2nc(O)c(O)nc2c1CN(C)CC(=O)O

- Ki [8]: 0.0033 µM
Compound: C[C@H]1Cc2cc(Br)cc3[nH]c(=O)c(=O)n(c23)C1CC(=O)O (stereo partly drawn)

Compound: O=c1[nH]c2ccc(CCCP(=O)(O)O)cc2[nH]c1=O
- Ki [3]: > 100 µM
- Ki [4]: 55 µM
- Ki [5]: > 100 µM
- IC50 [6]: > 100 µM
- IC50 [7]: > 100 µM

- MIC (Escherichia coli): > 500 mg/L
- MIC (Aspergillus niger): > 500 mg/L
- MIC [1]: 500 mg/L
- MIC (Pseudomonas aeruginosa): > 500 mg/L
- MIC (Candida albicans): 3.9 mg/L
- MIC (Staphylococcus aureus): 1.95 mg/L
- MIC (Bacillus cereus): 12.5 mg/L
Compound: CCCCCCCCCn1c(=O)c2c(-c3ccccc3)nc(-c3ccc[n+](Cc4ccccc4)c3)n2c2ccccc21.[Cl-]
- MBC (Escherichia coli): > 500 mg/L
- MBC (Aspergillus niger): > 500 mg/L
- MBC [1]: > 500 mg/L
- MBC (Pseudomonas aeruginosa): > 500 mg/L
- MBC (Candida albicans): 500 mg/L
- MBC (Staphylococcus aureus): 50 mg/L
- MBC (Bacillus cereus): > 500 mg/L

- Ki [8]: 0.0031 µM
Compound: C[C@H]1Cc2cc(Cl)cc3[nH]c(=O)c(=O)n(c23)C1CC(=O)Nc1ccccc1 (stereo partly drawn)

- MIC (Escherichia coli): > 500 mg/L
- MIC (Aspergillus niger): > 500 mg/L
- MIC [1]: > 500 mg/L
- MIC (Pseudomonas aeruginosa): > 500 mg/L
- MIC (Candida albicans): > 500 mg/L
- MIC (Staphylococcus aureus): 7.8 mg/L
- MIC (Bacillus cereus): 7.8 mg/L
Compound: CCCCCCCCCn1c(=O)c2c(-c3ccccc3)nc(-c3ccc[n+](CCCCCCCCC)c3)n2c2ccccc21.[I-]
- MBC (Escherichia coli): > 500 mg/L
- MBC (Aspergillus niger): > 500 mg/L
- MBC [1]: > 500 mg/L
- MBC (Pseudomonas aeruginosa): > 500 mg/L
- MBC (Candida albicans): > 500 mg/L
- MBC (Staphylococcus aureus): 500 mg/L
- MBC (Bacillus cereus): > 500 mg/L

Compound: O=C(O)Cc1cccc(-c2ccc3[nH]c(=O)c(=O)[nH]c3c2)c1
- Ki [3]: > 100 µM
- Ki [4]: 41 µM
- Ki [5]: > 100 µM
- IC50 [6]: > 100 µM
- IC50 [7]: > 100 µM

- MIC (Escherichia coli): > 500 mg/L
- MIC (Aspergillus niger): > 500 mg/L
- MIC [1]: 500 mg/L
- MIC (Pseudomonas aeruginosa): > 500 mg/L
- MIC (Candida albicans): 7.8 mg/L
- MIC (Staphylococcus aureus): 0.97 mg/L
- MIC (Bacillus cereus): 6.3 mg/L
Compound: CCCCCCn1c(=O)c2c(-c3ccccc3)nc(-c3ccc[n+](Cc4ccccc4)c3)n2c2ccccc21.[Cl-]
- MBC (Escherichia coli): > 500 mg/L
- MBC (Aspergillus niger): > 500 mg/L
- MBC [1]: > 500 mg/L
- MBC (Pseudomonas aeruginosa): > 500 mg/L
- MBC (Candida albicans): 500 mg/L
- MBC (Staphylococcus aureus): 50 mg/L
- MBC (Bacillus cereus): > 500 mg/L

- Ki [8]: 0.0023 µM
Compound: O=C(O)C[C@@H]1CCc2cc(Br)cc3[nH]c(=O)c(=O)n1c23
